Data taken from article PMC6522912, “Evaluation of the published kinase inhibitor set to identify multiple inhibitors of bacterial ATP-dependent mur ligases” (Journal of Enzyme Inhibition and Medicinal Chemistry, 2019).
Where two headings read alike, the source gives them in different places.

Legend:
[1] = target: E. coli MurC (Escherichia coli, UniProt P17952); assay: Malachite green inhibition assay, MurC; format: biochemical; details: 0.25 h
[2] = target: E. coli MurD (Escherichia coli, UniProt P14900); assay: biochemical; details: 0.25 h, read-out: RA [%] at 100 µM MurD
Sequence of E. coli MurD (P14900 whole entry): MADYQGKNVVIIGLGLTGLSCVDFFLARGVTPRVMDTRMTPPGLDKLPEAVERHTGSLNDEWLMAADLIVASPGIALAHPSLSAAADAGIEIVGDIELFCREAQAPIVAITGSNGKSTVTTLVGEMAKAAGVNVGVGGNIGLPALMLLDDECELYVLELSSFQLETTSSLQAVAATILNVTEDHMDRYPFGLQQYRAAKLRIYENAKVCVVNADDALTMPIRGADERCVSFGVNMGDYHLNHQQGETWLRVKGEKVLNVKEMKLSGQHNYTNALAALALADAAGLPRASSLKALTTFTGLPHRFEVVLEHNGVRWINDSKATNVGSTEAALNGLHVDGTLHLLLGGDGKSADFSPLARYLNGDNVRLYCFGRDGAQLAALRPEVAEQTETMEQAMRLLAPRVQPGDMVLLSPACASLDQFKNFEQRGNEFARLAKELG
In short: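 Reaction 15 min at 37 °C, then phosphate detected with Biomol green at 650 nm. Values are residual activity versus 5% DMSO carrier controls.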

[3] = target: E. coli MurF (Escherichia coli, UniProt P11880); assay: biochemical; details: 0.25 h, read-out: RA [%] at 100 µM MurF
Sequence of E. coli MurF (P11880 whole entry): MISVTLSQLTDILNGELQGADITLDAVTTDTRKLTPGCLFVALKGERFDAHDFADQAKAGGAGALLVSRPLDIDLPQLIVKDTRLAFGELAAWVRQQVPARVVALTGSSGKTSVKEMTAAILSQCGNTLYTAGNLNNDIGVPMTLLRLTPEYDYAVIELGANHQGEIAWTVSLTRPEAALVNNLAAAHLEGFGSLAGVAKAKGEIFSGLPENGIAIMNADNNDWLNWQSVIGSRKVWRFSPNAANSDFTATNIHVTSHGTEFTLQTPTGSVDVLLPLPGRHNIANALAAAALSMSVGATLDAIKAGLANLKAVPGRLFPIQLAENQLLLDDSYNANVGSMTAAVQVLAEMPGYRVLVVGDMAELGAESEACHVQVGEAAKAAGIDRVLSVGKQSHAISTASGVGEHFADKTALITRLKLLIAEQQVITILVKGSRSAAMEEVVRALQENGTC

[4] = Table S1, PKIS screening, read-out: RA [%] at 100 µM MurC
[5] = read-out: RA [%] at 100 µM MurC, Table S1, PKIS screening

Sequence of E. coli MurC (P17952 whole entry): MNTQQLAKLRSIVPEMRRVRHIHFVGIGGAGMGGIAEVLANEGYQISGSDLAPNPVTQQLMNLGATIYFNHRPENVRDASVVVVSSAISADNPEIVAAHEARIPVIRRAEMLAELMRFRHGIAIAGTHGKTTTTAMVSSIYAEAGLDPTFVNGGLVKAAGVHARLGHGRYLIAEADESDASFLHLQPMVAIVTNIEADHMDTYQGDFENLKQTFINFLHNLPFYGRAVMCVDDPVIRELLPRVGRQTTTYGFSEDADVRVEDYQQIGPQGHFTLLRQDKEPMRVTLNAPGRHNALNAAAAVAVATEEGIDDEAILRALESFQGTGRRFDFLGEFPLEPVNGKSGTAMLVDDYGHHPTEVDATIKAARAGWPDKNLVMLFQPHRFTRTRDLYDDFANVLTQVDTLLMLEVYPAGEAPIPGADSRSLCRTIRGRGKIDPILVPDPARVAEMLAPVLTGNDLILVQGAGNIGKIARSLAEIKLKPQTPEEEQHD

Structure (SMILES) | remaining activity at 100 µM [1, 4] [%] | remaining activity at 100 µM ([2]; Table S1, PKIS screening) [%] | remaining activity at 100 µM ([3]; Table S1, PKIS screening) [%] | remaining activity at 100 µM [2] [%] | remaining activity at 100 µM [3] [%] | remaining activity at 100 µM [1, 5] [%]
Cc1nnc(-c2ccc(C)c(-c3ccc(C(=O)NCc4ccc(Cl)cc4)cc3)c2)o1 [GW708893X] | 100 | 100 | 94 |  |  | 
O=C(Nc1ccc(Oc2ccc3nc(NC(=O)c4ccccc4)[nH]c3c2)cc1)Nc1cc(C(F)(F)F)ccc1F [GW709042A] | 100 | 95 | 100 |  |  | 
c1ccc(-c2n[nH]cc2-c2ccnc(-c3ccc(OCCn4ccnc4)cc3)c2)nc1 [GW711782X] | 100 | 74 | 93 |  |  | 
Cc1nnc(-c2cccc(-c3ccc(C(=O)NCC4CC4)cc3)c2)o1 [GW734508X] | 89 | 100 | 74 |  |  | 
Cc1ccc(NC(=O)c2ccnc(N3CCCC3)c2)cc1-c1ccc(C(=O)NCC2CC2)cc1 [GW769076X] | 38 | 56 | 62 |  |  | 
Cc1nn(C)c2cc(N(C)c3ccnc(Nc4cccc(S(N)(=O)=O)c4)n3)ccc12 [GW770220A] | 91 | 86 | 74 |  |  | 
Nc1ncnc2occ(-c3ccc(NC(=O)Nc4cc(C(F)(F)F)ccc4F)cc3)c12 [GW770249A] | 60 | 83 | 63 |  |  | 
N#Cc1cccc(Nc2nccc(-c3cnn4ncccc34)n2)c1 [GW778894X] | 66 | 70 | 68 |  |  | 
CCN(CC)Cc1ccc(Nc2nccc(-c3cnn4ncccc34)n2)cc1 [GW780056X] | 78 | 78 | 88 |  |  | 
Nc1nc(-c2cccc(Cl)c2)c(-c2ccc3ncccc3n2)s1 [GW780159X] | 56 | 90 | 83 |  |  | 
NC(=O)c1cccc(Nc2nccc(Nc3cccc4[nH]ncc34)n2)c1 [GW782612X] | 86 | 92 | 77 |  |  | 
CN1CCN(Cc2ccc(-c3cc4ncnc(Nc5ccc(OCc6cccc(F)c6)c(Cl)c5)c4s3)o2)CC1 [GW784684X] | 20 | 52 | 56 |  |  | 
CCn1c(-c2nonc2N)nc2ccc(F)cc21 [GW785404X] | 100 | 88 | 79 |  |  | 
Nc1nc(-c2ccc(F)cc2)c(-c2ccc3ncccc3n2)s1 [GW785804X] | 100 | 82 | 78 |  |  | 
Cc1cccc(-c2n[nH]cc2-c2ccc3ncccc3n2)n1 [GW786460X] | 82 |  |  | 76 | 91 | 
Nc1ncnc2occ(-c3ccc(NC(=O)Nc4cc(C(F)(F)F)cc(C(F)(F)F)c4)cc3)c12 [GW795486X] | 36 | 57 | 71 |  |  | 
Nc1nccc(C#Cc2cncnc2Nc2ccc(OCc3cccc(F)c3)c(Cl)c2)n1 [GW799251X] | 33 | 50 | 0 |  |  | 
COc1cc(Nc2nccc(-c3cnn4ncccc34)n2)cc(OC)c1 [GW801372X] | 94 | 88 | 80 |  |  | 
COc1cccc(COc2cc(-n3cnc4ccccc43)sc2C(N)=O)c1 [GW804482X] | 100 | 79 | 82 |  |  | 
CC(C)c1ccc(Nc2nccc(-c3cnn4ncccc34)n2)cc1 [GW805758X] | 64 | 57 | 68 |  |  | 
c1cnn2ncc(-c3ccnc(Nc4ccc5c(c4)OCCO5)n3)c2c1 [GW806290X] | 64 | 69 | 71 |  |  | 
CN(c1ccc(NC(=O)Nc2ccc(OC(F)(F)F)cc2)cc1)c1ccnc(Nc2cccc(S(N)(=O)=O)c2)n1 [GW806742X] | 64 | 92 | 93 |  |  | 
O=C(NCC1CC1)c1ccc(-c2cccc(C(=O)NC3CC3)c2)cc1 [GW806776X] | 84 | 95 | 78 |  |  | 
CCOc1ccc2c(-c3ccnc(Nc4cc(OC)cc(C(F)(F)F)c4)n3)cnn2n1 [GW807982X] | 55 | 78 | 50 |  |  | 

Structure (SMILES) | remaining activity at 100 µM [1, 4] [%] | remaining activity at 100 µM ([2]; Table S1, PKIS screening) [%] | remaining activity at 100 µM ([3]; Table S1, PKIS screening) [%] | remaining activity at 100 µM [2] [%] | remaining activity at 100 µM [3] [%] | remaining activity at 100 µM [1, 5] [%]
COc1cccc(-n2nc(C)c3c(N/N=C(\C)c4ccncc4)ncnc32)c1 [GW809885X] | 76 | 74 | 100 |  |  | 
CN(c1ccc(NC(=O)Nc2c(Cl)cccc2Cl)cc1)c1ccnc(Nc2cccc(CS(C)(=O)=O)c2)n1 [GW809897X] | 26 | 55 | 51 |  |  | 
COc1ccc2c(-c3ccnc(Nc4cccc(OC(F)(F)F)c4)n3)cnn2n1 [GW810372X] | 46 | 70 | 73 |  |  | 
COc1cccc(-n2ncc3c(N/N=C/c4ccc(S(C)(=O)=O)cc4)ncnc32)c1 [GW811168X] | 57 | 87 | 35 |  |  | 
CCOc1ccc2c(-c3ccnc(Nc4cccc(C(F)(F)F)c4)n3)cnn2n1 [GW811761X] | 64 | 93 | 74 |  |  | 
COc1cccc(-n2cnc3c(N/N=C/c4ccncc4)ncnc32)c1 [GW813360X] | 65 | 84 | 81 |  |  | 
COc1cccc(-n2ncc3c(N/N=C/c4cccc(F)c4)ncnc32)c1 [GW817394X] | 64 | 81 | 46 |  |  | 
COc1cccc(-n2ncc3c(N/N=C/c4ccc(F)cc4)ncnc32)c1 [GW817396X] | 69 | 95 | 41 |  |  | 
FC(F)(F)c1cccc(Nc2nccc(-c3cnn4nc(-c5ccccc5)ccc34)n2)c1 [GW819077X] | 50 | 63 | 58 |  |  | 
Cc1ccc(C(=O)NC2CC2)cc1-c1ccc2[nH]ncc2c1 [GW820759X] | 63 | 100 | 86 |  |  | 
COc1ccc(-c2nn3ncccc3c2-c2ccnc(Nc3ccc4c(c3)OCCO4)n2)cc1 [GW827106X] |  | 32 | 49 |  |  | 13
COc1ccc(-c2nn3ncccc3c2-c2ccnc(Nc3ccc(F)c(F)c3)n2)cc1 [GW827396X] | 79 | 61 | 61 |  |  | 
FC(F)(F)c1ccc(-c2nn3ncccc3c2-c2ccnc(Nc3ccc4c(c3)OCCO4)n2)cc1 [GW828525X] |  | 90 | 47 |  |  | 21
COc1cccc(/C=N/Nc2ncnc3c2cnn3-c2cccc(OC)c2)c1 [GW829874X] | 69 | 78 | 85 |  |  | 
COc1cccc(-n2ncc3c(N/N=C/c4ccc(C)cc4)ncnc32)c1 [GW829877X] | 70 | 85 | 76 |  |  | 
CN1CCN(C(=O)c2ccc(NC(=O)Nc3ccc(N(C)c4ccnc(Nc5ccc(CS(C)(=O)=O)cc5)n4)cc3)cc2)CC1 [GW830263A] | 51 | 69 | 73 |  |  | 
CN(C)CCNC(=O)Nc1ccc(N(C)c2ccnc(Nc3ccc(CS(C)(=O)=O)cc3)n2)cc1 [GW830900A] | 74 | 91 | 75 |  |  | 
Cc1ccc2c(-c3ccnc(Nc4ccc5c(c4)OCCO5)n3)c(-c3ccc(C(F)(F)F)cc3)nn2n1 [GW832467X] |  | 62 | 73 |  |  | 22
COc1cc2ncn(-c3cc(OCc4ccccc4C(F)(F)F)c(C(N)=O)s3)c2cc1OC [GW843682X] | 65 | 82 | 83 |  |  | 
COc1cc2ncn(-c3cc(OCc4ccccc4Cl)c(C(N)=O)s3)c2cc1OC [GW852849X] | 67 | 81 | 85 |  |  | 
NC(=O)c1sc(-n2cnc3ccc(C(F)(F)F)cc32)cc1OCc1ccccc1Br [GW853606X] | 64 | 86 | 75 |  |  | 
Nc1ncc(-c2cccc(S(N)(=O)=O)c2)c2scc(-c3ccc(F)c(Cl)c3)c12 [GW856804X] | 64 | 75 | 71 |  |  | 
O=C(O[C@H]1CN[C@H](C#Cc2cc3ncnc(Nc4ccc(OCc5cccc(F)c5)c(Cl)c4)c3s2)C1)N1CCOCC1 [GW869810X] | 65 | 55 | 77 |  |  | 
Fc1ccc(-c2ncn(CCCN3CCOCC3)c2-c2ccncc2)cc1 [SB-210313] | 100 | 91 | 100 |  |  | 
